As usually defined, the IC50 is the concentration that gives 50% inhibition.

One assay deals with T1, human Cdc7/human ASK conjugated protein (Homo sapiens, UniProt O00311).
T1 construct: purchased CARNA BIOSCIENCES
T1 sequence (O00311 whole entry): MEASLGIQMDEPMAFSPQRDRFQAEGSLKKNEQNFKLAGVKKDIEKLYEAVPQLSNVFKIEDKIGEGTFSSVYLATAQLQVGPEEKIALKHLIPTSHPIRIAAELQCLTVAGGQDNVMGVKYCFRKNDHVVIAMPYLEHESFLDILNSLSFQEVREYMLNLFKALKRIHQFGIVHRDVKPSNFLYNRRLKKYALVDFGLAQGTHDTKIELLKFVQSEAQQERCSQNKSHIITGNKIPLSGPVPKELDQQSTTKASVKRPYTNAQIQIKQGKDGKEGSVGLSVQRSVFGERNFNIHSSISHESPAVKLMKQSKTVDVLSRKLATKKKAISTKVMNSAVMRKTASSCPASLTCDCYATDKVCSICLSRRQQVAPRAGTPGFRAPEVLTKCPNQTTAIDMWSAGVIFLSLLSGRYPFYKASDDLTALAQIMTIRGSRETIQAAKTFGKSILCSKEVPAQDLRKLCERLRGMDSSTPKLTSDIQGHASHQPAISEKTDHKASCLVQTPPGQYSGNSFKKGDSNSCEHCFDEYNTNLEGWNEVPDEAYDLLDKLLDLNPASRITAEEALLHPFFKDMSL
T1 sequence (Q9UBU7 whole entry partner): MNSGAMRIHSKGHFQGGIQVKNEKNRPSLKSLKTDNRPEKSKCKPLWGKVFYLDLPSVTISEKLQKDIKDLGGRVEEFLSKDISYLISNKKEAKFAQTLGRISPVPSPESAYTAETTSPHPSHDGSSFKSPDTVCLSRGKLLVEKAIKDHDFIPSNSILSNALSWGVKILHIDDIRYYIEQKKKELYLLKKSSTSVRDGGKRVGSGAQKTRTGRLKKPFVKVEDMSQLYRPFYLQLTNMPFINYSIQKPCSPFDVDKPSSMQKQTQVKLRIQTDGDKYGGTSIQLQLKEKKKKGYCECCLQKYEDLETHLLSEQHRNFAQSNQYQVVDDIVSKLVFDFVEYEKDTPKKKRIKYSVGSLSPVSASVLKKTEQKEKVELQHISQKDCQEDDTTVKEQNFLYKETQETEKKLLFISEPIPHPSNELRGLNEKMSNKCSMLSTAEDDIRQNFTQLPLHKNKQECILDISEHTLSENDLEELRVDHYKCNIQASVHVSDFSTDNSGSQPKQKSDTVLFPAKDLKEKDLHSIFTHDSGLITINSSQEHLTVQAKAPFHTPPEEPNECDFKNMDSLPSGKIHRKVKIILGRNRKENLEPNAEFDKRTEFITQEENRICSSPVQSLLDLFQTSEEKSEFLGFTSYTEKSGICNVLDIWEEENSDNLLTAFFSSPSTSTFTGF
The assay can be described thus: Cdc7 protein kinase inhibitory action (Cdc7-ASK kinase activity, 32P-labeled MCM2). The settings on record: substrate mouse MCM2-4(his)-6-7(his) conjugated protein, 0.1 mM ATP, 30° C. for 45 minutes; read-out: Activity (uM) ELISA (IC50). Format: biochemical. As to the method: Cdc7 protein kinase inhibitory action of the (di)azaindole derivatives shown in Table 4 was evaluated according to the following operations.
As a substrate for evaluating the enzymatic activity, mouse MCM2-4(his)-6-7 (his) conjugated protein was synthesized. First, the following genes were cloned into a pAcUW31 vector (Pharmingen).
Mouse MCM2 (Genbank/EMBL No. D86725);
N-His-mouse MCM4 (Genbank/EMBL No. D26089, a His6 tag was added to an N-terminal);
Mouse MCM6 (Genbank/EMBL No. D86726), and
N-His-mouse MCM7 (Genbank/EMBL No. D26091, a His6 tag was added to an N-terminal).
The Mouse MCM2 gene and the N-His-mouse MCM7 gene were inserted into the BamHI site and the EcoRI site of the pAcUW31 vector (Mom2-7 Vector), respectively. The mouse MCM6 gene and the N-His-mouse MCM4 gene were inserted into the BamHI site and the EcoRI site of the pAcUW31 vector (MGm-4-6 Vector), respectively. Then, in order to produce a recombinant mouse MCM2-7 (his) and mouse MCM4 (his)-6 Baculovirus, BaculoGold AoNPV Baculovirus DNA (BD/Pharmingen) and an Mcm2-7 Vector or an Mcm-4-6 Vector were cotransfected to SD insect cells. The obtained Mcm2-7 and Mom-4-6 virus were coinfected to Hi5 insect cells. Thereby, a mouse MCM2-4 (his)-6-7 (his) conjugated protein was obtained. Purified mouse MCM2-4 (his)-6-7 (his) conjugated protein (0.5 μg) was used as a substrate.
The substrate (mouse MCM2-4(his)-6-7(his) conjugated protein) (0.5 μg) and kinase enzyme (human Cdc7/human ASK conjugated protein, CARNA BIOSCIENCES) (0.1 μg) were mixed in a microtube. A kinase reaction buffer containing 0.1 μL of γ-^32P ATP (Perkin Elmer) was added as a tracer into the same microtube. The composition of the kinase buffer includes the followings.
40 mM HEPES-KOH buffer pH 7.6,
Furthermore, 0.5 μL of each of the test compounds ((di)azaindole derivatives 10 μM, 100 μM, and 1000 μM, respectively) was added and reacted at 30° C. for 45 minutes. After the reaction, the substrate was separated by SDS-PAGE method, and protein was stained by the silver staining method (2D-silver staining reagent H “Daiichi,” Daiichi Pure Chemicals Co., Ltd.).
The radioactivity of ^32P-labeled MCM2 protein was detected by autoradiography, and the radioactivity of the band of MCM2 protein was measured by a liquid scintillation counter (LSC-6100, ALOKA). As to the Cdc7-ASK kinase activity, the radioactivity at the time when the each of the test compounds was added was calculated in percent when the radioactivity at the time when DMSO (0.5 μL) was added instead of the test compound (0.5 μL) that had been added immediately before the reaction was made to be 100%. Based on the obtained results, IC 50 value of each test compound was calculated. IC50 with respect to Cdc7-ASK kinase of the main (di)azaindole derivatives shown in Table 5 was about 0.001 μM to 0.008 μM.
Background: An ELISA detects its analyte on a solid surface through an enzyme-linked reagent.
Turning to `Cc1cc(OC2CCN(C)CC2)ccc1/N=C1/NC(=O)/C(=C/c2c[nH]c3ncncc23)S1` [Compound 16, (2Z,5Z)-2-{4-(1-methyl-piperidin-4-yl)oxy-2-methylphenyl}azamethylene-5-(7H-pyrrolo[2,3-d]pyrimidin-5-yl)methylene-1,3-thiazolidin-4-one], the concentration for half-maximal inhibition (IC50) is 0.006 µM.
On to `CN(C)CCOc1ccc(/N=C2/NC(=O)/C(=C/c3c[nH]c4ncccc34)S2)c(C(F)(F)F)c1` [Compound 13, (2Z,5Z)-2-{4-(2-dimethylamino)ethoxy-2-trifluoromethylphenyl}azamethylene-5-(1H-pyrrolo[2,3-b]pyridin-3-yl)methylene-1,3-thiazolidin-4-one], for which the IC50 stood at 0.003 µM.
The same measure, in the same setting: the result for `CN1CCC(Oc2ccc(/N=C3/NC(=O)/C(=C/c4c[nH]c5ncccc45)S3)c(Cl)c2)C1` (centres unmarked) [Compound 12, (2Z,5Z)-2-{2-chloro-4-(1-methylpyrrolidin-3-yl)oxyphenyl}azamethylene-5-(1H-pyrrolo[2,3-b]pyridin-3-yl)methylene-1,3-thiazolidin-4-one] reads 0.001 µM.
Consider `CN(C)CCOc1ccc(/N=C2/NC(=O)/C(=C/c3c[nH]c4ncncc34)S2)c(C(F)(F)F)c1` [Compound 19, (2Z,5Z)-2-{4-(2-dimethylamino)ethoxy-2-trifluoromethylphenyl}azamethylene-5-(7H-pyrrolo[2,3-d]pyrimidin-5-yl)methylene-1,3-thiazolidin-4-one], for which the IC50 worked out at 0.006 µM.
The same measure, in the same setting: next, `COc1ccc(/N=C2/NC(=O)/C(=C/c3c[nH]c4ncccc34)S2)c(C)c1` [Compound 1, (2Z,5Z)-2-(4-methoxy-2-methylphenyl)azamethylene-5-(1H-pyrrolo[2,3-b]pyridin-3-yl)methylene-1,3-thiazolidin-4-one]: 0.0012 µM.
With `Cc1cc(OCCN2CCN(C)CC2)ccc1/N=C1/NC(=O)/C(=C/c2c[nH]c3ncccc23)S1` [Compound 7, (2Z,5Z)-2-[4-{2-(4-methylpiperazin-1-yl)}ethoxy-2-methylphenyl]azamethylene-5-(1H-pyrrolo[2,3-b]pyridin-3-yl)methylene-1,3-thiazolidin-4-one], the concentration for half-maximal inhibition (IC50) turned out to be 0.0021 µM.
`O=C1N/C(=N/c2ccc(C(=O)O)cc2)S/C1=C\c1c[nH]c2ncccc12` [Compound 4, (2Z,5Z)-2-(4-carboxyphenyl)azamethylene-5-(1H-pyrrolo[2,3-b]pyridin-3-yl)methylene-1,3-thiazolidin-4-one]: the half-maximal inhibitory concentration (IC50) is 0.018 µM.
With `CN1CCC(Oc2ccc(/N=C3/NC(=O)/C(=C/c4c[nH]c5ncccc45)S3)c(C(F)(F)F)c2)C1` (centres unmarked) [Compound 14, (2Z,5Z)-2-{4-(1-methylpyrrolidin-3-yl)oxy-2-trifluoromethylphenyl}azamethylene-5-(1H-pyrrolo[2,3-b]pyridin-3-yl)methylene-1,3-thiazolidin-4-one], the half-inhibitory concentration (IC50) came to 0.002 µM.
On to `Cc1cc(OC2CCN(C)C2)ccc1/N=C1/NC(=O)/C(=C/c2c[nH]c3ncncc23)S1` (centres unmarked) [Compound 15, (2Z,5Z)-2-{4-(1-methylpyrrolidin-3-yl)oxy-2-methylphenyl}azamethylene-5-(7H-pyrrolo[2,3-d]pyrimidin-5-yl)methylene-1,3-thiazolidin-4-one], for which the half-inhibitory concentration (IC50) is 0.008 µM.
Consider `CN(C)CCOc1ccc(/N=C2/NC(=O)/C(=C/c3c[nH]c4ncncc34)S2)c(Cl)c1` [Compound 17, (2Z,5Z)-2-{2-chloro-4-(2-dimethylamino)ethoxyphenyl}azamethylene-5-(7H-pyrrolo[2,3-d]pyrimidin-5-yl)methylene-1,3-thiazolidin-4-one], for which the IC50 worked out at 0.002 µM.
In the case of `CN1CCC(Oc2ccc(/N=C3/NC(=O)/C(=C/c4c[nH]c5ncncc45)S3)c(Cl)c2)C1` (centres unmarked) [Compound 18, (2Z,5Z)2-{2-chloro-4-(1-methylpyrrolidin-3-yl)oxyphenyl}azamethylene-5-(7H-pyrrolo[2,3-d]pyrimidin-5-yl)methylene-1,3-thiazolidin-4-one], the half-inhibitory concentration (IC50) was 0.002 µM.
The same measure, in the same setting: the result for `Cc1cc(OC2CCN(C)C2)ccc1/N=C1/NC(=O)/C(=C/c2c[nH]c3ncccc23)S1` (centres unmarked) [Compound 6, (2Z,5Z)-2-{4-(1-methylpyrrolidin-3-yl)oxy-2-methylphenyl}azamethylene-5-(1H-pyrrolo[2,3-b]pyridin-3-yl)methylene-1,3-thiazolidin-4-one] reads 0.003 µM; that for `Cc1ccc(/N=C2/NC(=O)/C(=C/c3c[nH]c4ncccc34)S2)c(C)c1` [Compound 2, (2Z,5Z)-2-(2,4-dimethylphenyl)azamethylene-5-(1H-pyrrolo[2,3-b]pyridin-3-yl)methylene-1,3-thiazolidin-4-one], 0.001 µM.
As to `Cc1cc(OCCN(C)C)ccc1/N=C1/NC(=O)/C(=C/c2c[nH]c3ncccc23)S1` [Compound 5, (2Z,5Z)-2-{4-(2-dimethylamino)ethoxy-2-methylphenyl}azamethylene-5-(1H-pyrrolo[2,3-b]pyridin-3-yl)methylene-1,3-thiazolidin-4-one], the IC50 turned out to be 0.0019 µM.
As for `CN1CCC(Oc2ccc(/N=C3/NC(=O)/C(=C/c4c[nH]c5ncncc45)S3)c(Cl)c2)CC1` [Compound 21, (2Z,5Z)-2-{2-chloro-4-(1-methyl-piperidin-4-yl)oxyphenyl}azamethylene-5-(7H-pyrrolo[2,3-d]pyrimidin-5-yl)methylene-1,3-thiazolidin-4-one], the half-maximal inhibitory concentration (IC50) stood at 0.003 µM.
Same read-out and setting: next, `CN(C)CCOc1ccc(/N=C2/NC(=O)/C(=C/c3c[nH]c4ncccc34)S2)c(Cl)c1` [Compound 10, (2Z,5Z)-2-{2-chloro-4-(2-dimethylamino)ethoxyphenyl}azamethylene-5-(1H-pyrrolo[2,3-b]pyridin-3-yl)methylene-1,3-thiazolidin-4-one]: 0.002 µM; `Cc1cc(O)ccc1/N=C1/NC(=O)/C(=C/c2c[nH]c3ncccc23)S1` [Compound 3, (2Z,5Z)-2-(4-hydroxy-2-methylphenyl)azamethylene-5-(1H-pyrrolo[2,3-b]pyridin-3-yl)methylene-1,3-thiazolidin-4-one]: 0.0014 µM; `CN1CCC(Oc2ccc(/N=C3/NC(=O)/C(=C/c4c[nH]c5ncncc45)S3)c(C(F)(F)F)c2)C1` (centres unmarked) [Compound 20, (2Z,5Z)-2-{4-(1-methylpyrrolidin-3-yl)oxy-2-trifluoromethylphenyl}azamethylene-5-(7H-pyrrolo[2,3-d]pyrimidin-5-yl)methylene-1,3-thiazolidin-4-one]: 0.007 µM.
For the molecule `CN1CCC(Oc2ccc(/N=C3/NC(=O)/C(=C/c4c[nH]c5ncccc45)S3)c(C(F)(F)F)c2)CC1` [Compound 23, (2Z,5Z)-2-{4-(1-methyl-piperidin-4-yl)oxy-2-trifluoromethylphenyl}azamethylene-5-(1H-pyrrolo[2,3-b]pyridm-3-yl)methylene-1,3-thiazolidin-4-one], the 50% inhibitory concentration (IC50) turned out to be 0.003 µM.
Regarding `CN1CCC(Oc2ccc(/N=C3/NC(=O)/C(=C/c4c[nH]c5ncccc45)S3)c(Cl)c2)CC1` [Compound 22, (2Z,5Z)-2-{2-chloro-4-(1-methyl-piperidin-4-yl)oxyphenyl}azamethylene-5-(1H-pyrrolo[2,3-b]pyridin-3-yl)methylene-1,3-thiazolidin-4-one], the concentration for half-maximal inhibition (IC50) is 0.001 µM.
For `Cc1cc(OCCN(C)C)ccc1/N=C1/NC(=O)/C(=C/c2c[nH]c3ncncc23)S1` [Compound 11, (2Z,5Z)-2-{4-(2-dimethylamino)ethoxy-2-methylphenyl}azamethylene-5-(7H-pyrrolo[2,3-d]pyrimidin-5-yl)methylene-1,3-thiazolidin-4-one], the concentration for half-maximal inhibition (IC50) was found to be 0.005 µM.

The next assay deals with T1, human Cdc7/human ASK conjugated protein. The description is as above. The settings on record: substrate mouse MCM2-4(his)-6-7(his) conjugated protein, 0.1 mM ATP, 30° C. for 45 minutes; read-out: Activity (uM) ELISA (IC50). Format: biochemical. The source holds these as a separate data set.
Regarding `Cc1cc(OCCN2CCOCC2)ccc1/N=C1/NC(=O)/C(=C/c2c[nH]c3ncccc23)S1` [Compound 9, (2Z,5Z)-2-{4-(2-morpholino)ethoxy-2-metlhylphenyl}azamethylene-5-(1H-pyrrolo[2,3-b]pyridin-3-yl)methylene-1,3-thiazolidin-4-one], the half-maximal inhibitory concentration (IC50) is 0.0017 µM.
“(2Z,5Z)-2-{4-(1-methyl-piperidin-4-yl)oxy-2-methylphenyl}azamethylene-5-(1H-pyrrolo[2,3-b]pyridin-3-yl)methylene-1,3-thiazolidin-4-one [Compound 8]”: the 50% inhibitory concentration (IC50) amounted to 0.0011 µM.
